Measured values taken from the NIST ThermoML archive (doi:10.1016/j.fluid.2013.11.030).
± gives the expanded uncertainty stated by the source.

Conditions: Liquid, Ebulliometric method (Recirculating still)

SMILES: CC(C)=O [acetone]
- vapor or sublimation pressure (329.3 K): 101.33 ± 1.5 kPa

SMILES: Cn1ccnc1 [1-methylimidazole]
- vapor or sublimation pressure (471.6 K): 101.33 ± 1.4 kPa

SMILES: CCCCCCBr [1-bromohexane]
- vapor or sublimation pressure (428.5 K): 101.33 ± 1.5 kPa
